Results published in US10369185B2, “Methods and compositions for enhancement of ability to concentrate” (KYOWA HAKKO BIO CO., LTD., priority 2014, dated 2019).
Entries after “also recorded” stand apart in the source; their conditions may differ. Peptide text beside a SMILES is read from it.

Experiments:
[1] = tested on: male runners; test: Dynavision D2 MODE A reaction test (hits and time per hit in 60 s); format: in vivo, human; parameters: Mode A Avg Δ (average time per hit), group mean: unit not given here; conditions: for Mode A Avg Δ (average time per hit), group mean / Mode A Hits Δ, group mean: Post-Pre
Protocol: The testing protocol is depicted in FIG. 1. Data collection occurred on four separate occasions. Each session required participants to perform a 60-min run at 75% of their previously measured VO2max. Following this run, all participants performed a run at 90% of their VO2max until volitional exhaustion. All participants performed their first trial (DHY) without any rehydration. During this session the total weight lost during the trial was determined. The fluid loss that occurred during this session was then used to determine the participant's swear rate (L·hr^−1). To continue in the study, participant's sweat rate was or exceeded 1.3 L·hr^−1. During the next three trails participants were provided 250 ml of fluid every 15 minutes in equal amounts. During one of the trials participants consumed only a flavored sports drink (ELECT only), while during the other trials participants consumed the alanine-glutamine supplement (Sustamine™) mixed in the same flavored sports drink at either a low (LD: 300 mg per 500 ml) or high (HD: 1 g per 500 ml) dose. Measurement of upper body reaction time was performed on the Dynavision D2 Visuomotor Training Device (D2; Dynavision International LLC, West Chester, Ohio). The D2 is a light training reaction device, developed to train sensory motor integration through the visual system. It consists of a board (4 foot×4 foot) that can be raised or lowered relative to the height of the operator. It contains 64 target buttons arranged into five concentric circles surrounding a center screen that can be illuminated to serve as a stimulus for the participant. Participants were required to assume a comfortable athletic stance and stand at a distance from the board where they could easily reach all of the lights. The board height was adjusted so the LCD screen was located just below eye level. A total of three different reaction tests were conducted. Participants were instructed to fixate their gaze on the LCD screen in the middle of the board and to keep their focus there for the entirety of the experiment. The second assessment (MODE A) measured the participant's ability to react to a stimulus as it changed positions on the board. An initial stimulus will present on the D2 in a 6 random location. The stimulus remained lit until it was struck by the participant. The stimulus then appeared at another random location. The participant was instructed to identify and strike as many stimuli as possible within 60 s. The number of hits and the average time per hits were recorded for each participant. Additionally, to make inferences on true effects of the different trials on reaction performance, an analysis based on the magnitude of differences, calculated from 90% confidence intervals, as previously described by Batterham and Hopkins (2005), was used in this study. Differences in Post-Pre performance (Δresponse) between trials were analyzed via a published spreadsheet (Hopkins 2007), with the smallest non-trivial change set at 20% of the grand standard deviation (Batterham and Hopkins 2005). All data are expressed as a mean effect±SD, with percent chances of a beneficial, trivial or negative outcome. Qualitative inferences, based on quantitative chances were assessed as: <1% almost certainly not, 1-5% very unlikely, 5-25% unlikely, 25-75% possibly, 75-95% likely, 95-99% very likely and >99% almost certainly (Hopkins 2002).

[2] = Blood measures during the 60-min run (plasma lactate, glucose, osmolality, potassium, sodium, glutamine); format: in vivo, human; conditions: at 45-min; HD compared with LD
Protocol: During each experimental session baseline (BL) blood samples were obtained at preexercise. Additional blood samples were also obtained following 30 min, 45 min and 60 min during the exercise session. All blood samples were obtained using a 20-gauge Teflon cannula placed in a superficial forearm vein using a 3-way stopcock with a male luer lock adapter. The cannula was maintained patent using an isotonic saline solution. BL blood samples were drawn following a 15-min equilibration period prior to exercise. Blood samples were obtained at the same time of day during each session.
Blood samples were drawn into plain or EDTA treated tubes. Blood samples will be analyzed in triplicate for hematocrit via microcapillary technique and hemoglobin. […]
Plasma glucose and lactate concentrations were determined in duplicate with an automated analyzer (Analox GM7 enzymatic metabolite analyzer, Analox Instruments USA, Lunenburg, Mass.). Plasma glutamine was analyzed with the use of a spectrophotometer and a commercially available enzymatic kit (Abnova, Jhongli City, Taiwan) per manufacturer's instructions. Serum immunoreactivity values were determined using a BioTekEon spectrophotometer (BioTek, Winooski, Vt., USA). Plasma sodium and potassium concentrations were assessed via ion-selective electrodes (EasyElectrolyte, Medica, Bedford, Mass.). […]

For C[C@H](N)C(=O)N[C@@H](CCC(N)=O)C(=O)O [L-Alanyl-L-Glutamine] (H-Ala-Gln-OH), the “Mode A Avg Δ, Interpretation” value ([1]; Dehydration vs High Dose) was “Possibly”, the “Mode A Avg Δ, Mean Difference” value ([1]; Dehydration vs High Dose) was 0.025 and the “Mode A Avg Δ, Percent Negative” value ([1]; Dehydration vs High Dose) was 2.83%. For the same compound, the “Mode A Avg Δ, Percent Positive” value ([1]; Dehydration vs High Dose) was 69.46%, the “Mode A Avg Δ, Percent Trivial” value ([1]; Dehydration vs High Dose) was 27.71% and the “Mode A Hits Δ, Interpretation” value ([1]; Dehydration vs High Dose) was “possible negative effect; also recorded: Possibly”. The “Mode A Hits Δ, Mean Difference” value ([1]; Dehydration vs High Dose) was −2.9, the “Mode A Hits Δ, Percent Negative” value ([1]; Dehydration vs High Dose) was 70.21% and the “Mode A Hits Δ, Percent Positive” value ([1]; Dehydration vs High Dose) was 2.09%. For the same compound, the “Mode A Hits Δ, Percent Trivial” value ([1]; Dehydration vs High Dose) was 27.70%, the “Mode A Avg Δ, Interpretation” value ([1]; Dehydration vs Low Dose) was “Possibly” and the “Mode A Avg Δ, Mean Difference” value ([1]; Dehydration vs Low Dose) was 0.02. For the same compound, the “Mode A Avg Δ, Percent Negative” value ([1]; Dehydration vs Low Dose) was 2.61%, the “Mode A Avg Δ, Percent Positive” value ([1]; Dehydration vs Low Dose) was 61.93% and the “Mode A Avg Δ, Percent Trivial” value ([1]; Dehydration vs Low Dose) was 35.45%. For the same compound, the “Mode A Hits Δ, Interpretation” value ([1]; Dehydration vs Low Dose) was “possible negative effect; also recorded: Possibly”, the “Mode A Hits Δ, Mean Difference” value ([1]; Dehydration vs Low Dose) was −2.2 and the “Mode A Hits Δ, Percent Negative” value ([1]; Dehydration vs Low Dose) was 57.68%. The “Mode A Hits Δ, Percent Positive” value ([1]; Dehydration vs Low Dose) was 3.88%, the “Mode A Hits Δ, Percent Trivial” value ([1]; Dehydration vs Low Dose) was 38.43% and the “Mode A Avg Δ, Interpretation” value ([1]; Gatorade vs High Dose) was “Possibly”. For the same compound, the “Mode A Avg Δ, Mean Difference” value ([1]; Gatorade vs High Dose) was 0.023, the “Mode A Avg Δ, Percent Negative” value ([1]; Gatorade vs High Dose) was 2.17% and the “Mode A Avg Δ, Percent Positive” value ([1]; Gatorade vs High Dose) was 67.69%. For the same compound, the “Mode A Avg Δ, Percent Trivial” value ([1]; Gatorade vs High Dose) was 30.14%, the “Mode A Hits Δ, Interpretation” value ([1]; Gatorade vs High Dose) was “possibly negative” and the “Mode A Hits Δ, Mean Difference” value ([1]; Gatorade vs High Dose) was 2.7. The “Mode A Hits Δ, Percent Negative” value ([1]; Gatorade vs High Dose) was 65.88%, the “Mode A Hits Δ, Percent Positive” value ([1]; Gatorade vs High Dose) was 2.87% and the “Mode A Hits Δ, Percent Trivial” value ([1]; Gatorade vs High Dose) was 31.25%. The “speed per hit, MODE A” value ([1]; HD and LD compared to DHY and ELECT only) was “not statistically different”, the “improvements of successful hits, MODE A” value ([1]; HD and LD compared to DHY and ELECT only, not statistically significant) was 3-4 fold and the “Mode A Avg Δ (average time per hit), group mean” value ([1]; High Dose (1 g per 500 ml)) was −0.028. For the same compound, the “Mode A Hits Δ, group mean” value ([1]; High Dose (1 g per 500 ml)) was 3.67, the “Mode A Avg Δ (average time per hit), group mean” value ([1]; Low Dose (300 mg per 500 ml)) was −0.023 and the “Mode A Hits Δ, group mean” value ([1]; Low Dose (300 mg per 500 ml)) was 2.92. For the same compound, the “Mode A Avg Δ, Interpretation” value ([1]; Low Dose vs Gatorade) was “Unclear”, the “Mode A Avg Δ, Mean Difference” value ([1]; Low Dose vs Gatorade) was −0.018 and the “Mode A Avg Δ, Percent Negative” value ([1]; Low Dose vs Gatorade) was 50.55%. The “Mode A Avg Δ, Percent Positive” value ([1]; Low Dose vs Gatorade) was 44.41%, the “Mode A Avg Δ, Percent Trivial” value ([1]; Low Dose vs Gatorade) was 5.04% and the “Mode A Hits Δ, Interpretation” value ([1]; Low Dose vs Gatorade) was “Unclear”. For the same compound, the “Mode A Hits Δ, Mean Difference” value ([1]; Low Dose vs Gatorade) was 1.9, the “Mode A Hits Δ, Percent Negative” value ([1]; Low Dose vs Gatorade) was 42.26% and the “Mode A Hits Δ, Percent Positive” value ([1]; Low Dose vs Gatorade) was 50.35%. For the same compound, the “Mode A Hits Δ, Percent Trivial” value ([1]; Low Dose vs Gatorade) was 7.39%, the “Mode A Avg Δ, Interpretation” value ([1]; Low Dose vs High Dose) was “Very Likely” and the “Mode A Avg Δ, Mean Difference” value ([1]; Low Dose vs High Dose) was 0.005. For the same compound, the “Mode A Avg Δ, Percent Negative” value ([1]; Low Dose vs High Dose) was 0.02%, the “Mode A Avg Δ, Percent Positive” value ([1]; Low Dose vs High Dose) was 2.51% and the “Mode A Avg Δ, Percent Trivial” value ([1]; Low Dose vs High Dose) was 97.47%. For the same compound, the “Mode A Hits Δ, Interpretation” value ([1]; Low Dose vs High Dose) was “Likely”, the “Mode A Hits Δ, Mean Difference” value ([1]; Low Dose vs High Dose) was −0.75 and the “Mode A Hits Δ, Percent Negative” value ([1]; Low Dose vs High Dose) was 9.11%. The “Mode A Hits Δ, Percent Positive” value ([1]; Low Dose vs High Dose) was 0.11%, the “Mode A Hits Δ, Percent Trivial” value ([1]; Low Dose vs High Dose) was 90.77% and the plasma glutamine concentrations [2] was “significant difference”.
